Reference: US20070243598A1, “NOVEL PSEUDONOCARDIA SP. RMRC PAH4 AND A PROCESS FOR BIOCONVERTING COMPACTIN INTO PRAVASTATIN USING THE SAME” (CHINESE PETROLEUM CORPORATION, priority 2004, published 2007)

Tested on: Pseudonocardia sp. RMRC PAH4
Assay: Tolerance of Pseudonocardia sp. RMRC PAH4 against compactin sodium
Assay type: cell-based
Details: added after 48 hours on shaker in YMG liquid medium, 220 rpm, 28° C.; conversion rate could not exceed 30%
Procedure: The strain was inoculated in the culture medium consisting of casein hydrolysate 0.05-0.2%; yeast extract 0.05-0.2%; soluble starch 0.5-2.0%; KH2PO4 0.01-0.08%; MgSO4.7H2O 0.05-0.2%; Pravastatin sodium 0.005-0.01%; and Bacto agar 2.0%, pH 7.0, and incubated under 28° C. for 7-20 days.
The above inoculum culture was incubated in compactin sodium-containing YMG liquid medium consisting of yeast extract 0.1-1.0%; malto extract 0.1-1.0%; peptone 0.1-1.0%; glucose 0.5-2.0%; cotton seed extract (Pharmamedia) 0.5-0.5%; KH2PO4 0.1-0.5%; Na2HPO4 0.3-0.7%; MgSO4.7H2O 0.01-0.05%; FeSO4.7H2O 0.001-0.01%; MnSO4.H2O 0.001-0.01%; CaCl2 0.001-0.01%; compactin sodium 0.002-0.01%; pH 6.5, on a shaker, at 220 rpm, under 28° C.
After incubating on shaker as described above for 48 hours, 300-3,000 μg/ml of compactin sodium as added and continued the incubation under same conditions. Utilization rate of compactin sodium and conversion rate of Pravastatin sodium were analyzed by HPLC at an interval of 24 hours.

Q: For `CC[C@H](C)C(=O)O[C@H]1CCC=C2C=C[C@H](C)[C@H](CCCC[C@@H](O)CC(=O)O)[C@H]21` [compactin sodium], which “amount of compactin sodium added above which growth of the bacteria becomes considerably slow” value is on record?
A: more than 2,500 μg/ml
